What follows are compounds tested against BRD4 (Homo sapiens, UniProt O60885) (assay: Time Resolved Fluorescence Resonance Energy Transfer (TR-FRET) binding assay, BRD4). Details: FRET BRD4 IC50 (nM), one of the FRET assays described.

SMILES | IC50 [nM]
[2H]C([2H])([2H])c1onc(C)c1-c1cnc2c3ccc(C(C)(C)O)cc3n([C@H](c3ccc(F)cc3)C3CCOCC3)c2c1 [Example 284, 2-{5-[(S)-(4-Fluorophenyl)(oxan-4-yl)methyl]-3-[5-(^2H3)methyl-3-methyl-1,2-oxazol-4-yl]-5H-pyrido[3,2-b]indol-7-yl}propan-2-ol] | < 5

Same assay, conditions: one of the FRET assays described; read-out: FRET BRD4 IC50

SMILES | IC50 [nM]
[2H]C([2H])([2H])c1nnn(C)c1-c1cnc2c3ccc(C(C)(C)O)c(F)c3n([C@H](c3ccccc3F)C3CCOCC3)c2c1 [Example 272, 2-{6-Fluoro-5-[(S)-(2-fluorophenyl)(oxan-4-yl)methyl]-3-[4-(^2H3)methyl-1-methyl-1H-1,2,3-triazol-5-yl]-5H-pyrido[3,2-b]indol-7-yl}propan-2-ol] | < 5
[2H]C([2H])([2H])c1nnn(C)c1-c1cnc2c3c(OC)cc(C(C)(C)O)cc3n([C@H](c3ccccc3)C3CCOCC3)c2c1 [Example 273, 2-{9-Methoxy-3-[4-(^2H3)methyl-1-methyl-1H-1,2,3-triazol-5-yl]-5-[(S)-oxan-4-yl(phenyl)methyl]-5H-pyrido[3,2-b]indol-7-yl}propan-2-ol] | < 5
COc1cc(C(C)(C)O)cc2c1c1ncc(-c3c(C)nnn3C)cc1n2[C@H](c1ccccc1F)C1CCOCC1 [Example 274] | < 5
[2H]C([2H])([2H])c1nnn(C)c1-c1cnc2c3cc(F)c(C(C)(C)O)cc3n([C@H](c3ccc(F)cc3)C3CCOCC3)c2c1 [Example 277, 2-{8-Fluoro-5-[(S)-(4-fluorophenyl)(oxan-4-yl)methyl]-3-[4-(^2H3)methyl-1-methyl-1H-1,2,3-triazol-5-yl]-5H-pyrido[3,2-b]indol-7-yl}propan-2-ol] | < 5
[2H]C([2H])([2H])c1nnn(C)c1-c1cnc2c3ccc(C(C)(C)O)cc3n(C(c3ccc(F)cc3F)C3CCOCC3)c2c1 (centres unmarked) [Example 280, 2-{5-[(2,4-Difluorophenyl)(oxan-4-yl)methyl]-3-[4-(^2H3)methyl-1-methyl-1H-1,2,3-triazol-5-yl]-5H-pyrido[3,2-b]indol-7-yl}propan-2-ol] | < 5
[2H]C([2H])([2H])c1nnn(C)c1-c1cnc2c3ccc(C(C)(C)O)cc3n(C(c3ccc(F)cc3F)C3CCOCC3)c2c1 (centres unmarked) [Example 281, 2-{5-[(2,4-Difluorophenyl)(oxan-4-yl)methyl]-3-[4-(^2H3)methyl-1-methyl-1H-1,2,3-triazol-5-yl]-5H-pyrido[3,2-b]indol-7-yl}propan-2-ol] | < 5
[2H]C([2H])([2H])c1nnn(C)c1-c1cnc2c3ccc(C(C)(C)O)c(F)c3n(C(c3ccc(F)cc3F)C3CCOCC3)c2c1 (centres unmarked) [Example 282, 2-{5-[(2,4-Difluorophenyl)(oxan-4-yl)methyl]-6-fluoro-3-[4-(^2H3)methyl-1-methyl-1H-1,2,3-triazol-5-yl]-5H-pyrido[3,2-b]indol-7-yl}propan-2-ol] | < 5
[2H]C([2H])([2H])c1nnn(C)c1-c1cnc2c3ccc(C(C)(C)O)c(F)c3n(C(c3ccc(F)cc3F)C3CCOCC3)c2c1 (centres unmarked) [Example 283, 2-{5-[(2,4-Difluorophenyl)(oxan-4-yl)methyl]-6-fluoro-3-[4-(^2H3)methyl-1-methyl-1H-1,2,3-triazol-5-yl]-5H-pyrido[3,2-b]indol-7-yl}propan-2-ol] | < 5
[2H]C([2H])([2H])c1onc(C)c1-c1cnc2c3ccc(C(C)(C)O)cc3n([C@H](c3ccccc3F)C3CCOCC3)c2c1 [Example 285, 2-{5-[(S)-(2-Fluorophenyl)(oxan-4-yl)methyl]-3-[5-(^2H3)methyl-3-methyl-1,2-oxazol-4-yl]-5H-pyrido[3,2-b]indol-7-yl}propan-2-ol] | < 5
COc1cnccc1C(C1CCOCC1)n1c2cc(C(C)(C)O)ccc2c2ncc(-c3c(C)nnn3C)cc21 (centres unmarked) [Example 291] | < 5
[2H]C([2H])([2H])c1nnn(C)c1-c1cnc2c3ccc(C(C)(C)O)cc3n(C(c3cc(C)on3)C3CCOCC3)c2c1 (centres unmarked) [Example 308, 2-{5-[(5-Methyl-1,2-oxazol-3-yl)(oxan-4-yl)methyl]-3-[4-(^2H3)methyl-1-methyl-1H-1,2,3-triazol-5-yl]-5H-pyrido[3,2-b]indol-7-yl}propan-2-ol] | < 5
[2H]C([2H])([2H])c1nnn(C)c1-c1cnc2c3ccc(C(C)(C)O)cc3n(C(c3cc(C)on3)C3CCOCC3)c2c1 (centres unmarked) [Example 309, 2-{5-[(5-Methyl-1,2-oxazol-3-yl)(oxan-4-yl)methyl]-3-[4-(^2H3)methyl-1-methyl-1H-1,2,3-triazol-5-yl]-5H-pyrido[3,2-b]indol-7-yl}propan-2-ol] | < 25
[2H]c1c(C([2H])(C2CCOCC2)n2c3cc(C(C)(C)O)ccc3c3ncc(-c4c(C)noc4C([2H])([2H])[2H])cc32)noc1C([2H])([2H])[2H] (centres unmarked) [Example 327] | < 5
[2H]c1c(C([2H])(C2CCOCC2)n2c3cc(C(C)(C)O)ccc3c3ncc(-c4c(C)noc4C([2H])([2H])[2H])cc32)noc1C([2H])([2H])[2H] (centres unmarked) [Example 328] | < 25
[2H]C([2H])([2H])c1nnn(C)c1-c1cnc2c3cc(F)c(C(C)(O)C4CC4)cc3n(C(c3cc(C)on3)C3CCOCC3)c2c1 (centres unmarked) [Example 329] | < 25
[2H]C([2H])([2H])c1nnn(C)c1-c1cnc2c3ccc(S(C)(=O)=O)cc3n(C(c3cc(C)on3)C3CCOCC3)c2c1 (centres unmarked) [Example 330, 5-{7-Methanesulfonyl-5-[(5-methyl-1,2-oxazol-3-yl)(oxan-4-yl)methyl]-5H-pyrido[3,2-b]indol-3-yl}-4-(^2H3)methyl-1-methyl-1H-1,2,3-triazole] | < 25
[2H]C([2H])([2H])c1nnn(C)c1-c1cnc2c3ccc(S(C)(=O)=O)cc3n(C(c3cc(C)on3)C3CCOCC3)c2c1 (centres unmarked) [Example 331, 5-{7-Methanesulfonyl-5-[(5-methyl-1,2-oxazol-3-yl)(oxan-4-yl)methyl]-5H-pyrido[3,2-b]indol-3-yl}-4-(^2H3)methyl-1-methyl-1H-1,2,3-triazole] | < 5

SMILES | IC50 [nM]
Cc1nnn(C)c1-c1cnc2c3ccc(CS(C)(=O)=O)cc3n([C@H](c3ncccc3F)C3CCOCC3)c2c1 [Example 332] | < 5
Cc1nnn(C)c1-c1cnc2c3ccc(CS(C)(=O)=O)cc3n([C@@H](c3ncccc3F)C3CCOCC3)c2c1 [Example 333] | < 5
Cc1nnn(C)c1-c1cnc2c3ccc(CS(C)(=O)=O)cc3n([C@@H](c3ccc(Cl)cn3)C3CCOCC3)c2c1 [Example 334] | < 5
Cc1nnn(C)c1-c1cnc2c3ccc(CS(C)(=O)=O)cc3n([C@H](c3cc(Cl)ccn3)C3CCOCC3)c2c1 [Example 335] | < 5
COc1ccnc([C@H](C2CCOCC2)n2c3cc(CS(C)(=O)=O)ccc3c3ncc(-c4c(C)nnn4C)cc32)c1 [Example 336] | < 5
Cc1ccnc([C@H](C2CCOCC2)n2c3cc(CS(C)(=O)=O)ccc3c3ncc(-c4c(C)nnn4C)cc32)c1 [Example 337] | < 5
Cc1ccc([C@H](C2CCOCC2)n2c3cc(CS(C)(=O)=O)ccc3c3ncc(-c4c(C)nnn4C)cc32)nc1 [Example 338] | < 5
Cc1nnn(C)c1-c1cnc2c3ccc(CS(C)(=O)=O)cc3n([C@H](c3ncccc3Cl)C3CCOCC3)c2c1 [Example 339] | < 5
Cc1nnn(C)c1-c1cnc2c3ccc(CS(C)(=O)=O)cc3n([C@@H](c3ncccc3Cl)C3CCOCC3)c2c1 [Example 340] | < 5
[2H]C([2H])([2H])c1onc(C)c1-c1cnc2c3ccc(C(C)(C)O)cc3n(C([2H])(c3ccncc3F)C3CCOCC3)c2c1 (centres unmarked) [Example 343, 2-{5-[(3-Fluoropyridin-4-yl)(oxan-4-yl)(^2H)methyl]-3-[5-(^2H3)methyl-3-methyl-1,2-oxazol-4-yl]-5H-pyrido[3,2-b]indol-7-yl}propan-2-ol] | < 5
[2H]C([2H])([2H])c1onc(C)c1-c1cnc2c3ccc(C(C)(C)O)cc3n(C([2H])(c3ccncc3F)C3CCOCC3)c2c1 (centres unmarked) [Example 344, 2-{5-[(3-Fluoropyridin-4-yl)(oxan-4-yl)(^2H)methyl]-3-[5-(^2H3)methyl-3-methyl-1,2-oxazol-4-yl]-5H-pyrido[3,2-b]indol-7-yl}propan-2-ol] | < 5
[2H]C([2H])([2H])c1nnn(C)c1-c1cnc2c3c(OC)cc(C(C)(C)O)cc3n(C(c3ccncc3F)C3CCOCC3)c2c1 (centres unmarked) [Example 347, 2-{5-[(3-Fluoropyridin-4-yl)(oxan-4-yl)methyl]-9-methoxy-3-[4-(^2H3)methyl-1-methyl-1H-1,2,3-triazol-5-yl]-5H-pyrido[3,2-b]indol-7-yl}propan-2-ol] | < 5
[2H]C([2H])([2H])c1nnn(C)c1-c1cnc2c3c(OC)cc(C(C)(C)O)cc3n(C(c3ccncc3F)C3CCOCC3)c2c1 (centres unmarked) [Example 348, 2-{5-[(3-Fluoropyridin-4-yl)(oxan-4-yl)methyl]-9-methoxy-3-[4-(^2H3)methyl-1-methyl-1H-1,2,3-triazol-5-yl]-5H-pyrido[3,2-b]indol-7-yl}propan-2-ol] | < 5
Cc1nnn(C)c1-c1cnc2c3ccc(C(C)(C)F)cc3n([C@H](c3ccccc3)C3CCOCC3)c2c1 [Example 351, 5-[7-(2-Fluoropropan-2-yl)-5-[(S)-oxan-4-yl(phenyl)methyl]-5H-pyrido[3,2-b]indol-3-yl]-1,4-dimethyl-1H-1,2,3-triazole] | < 5
Cc1nnn(C)c1-c1cnc2c3ccc(C(C)(C)F)c(F)c3n([C@H](c3ccccc3)C3CCOCC3)c2c1 [Example 352, 5-[6-Fluoro-7-(2-fluoropropan-2-yl)-5-[(S)-oxan-4-yl(phenyl)methyl]-5H-pyrido[3,2-b]indol-3-yl]-1,4-dimethyl-1H-1,2,3-triazole] | < 25
COc1cc2c3ncc(-c4c(C)nnn4C)cc3n([C@H](c3ccc(F)cc3)C3CCOCC3)c2cc1C(C)(C)O [Example 353, 2-[3-(Dimethyl-1H-1,2,3-triazol-5-yl)-5-[(S)-(4-fluorophenyl)(oxan-4-yl)methyl]-8-methoxy-5H-pyrido[3,2-b]indol-7-yl]propan-2-ol] | < 5
COc1cc2c3ncc(-c4c(C)nnn4C)cc3n([C@H](c3ccccc3)C3CCOCC3)c2cc1C(C)(C)O [Example 354, 2-[3-(Dimethyl-1H-1,2,3-triazol-5-yl)-8-methoxy-5-[(S)-oxan-4-yl(phenyl)methyl]-5H-pyrido[3,2-b]indol-7-yl]propan-2-ol] | < 5
